Like-named read-outs stand apart in the source and are kept apart here.
Columns and labels:
CDK1:Cyclin-B = molecular target: T1, CDK1:Cyclin-B (Homo sapiens, UniProt P06493); assay: CDK1 Screening Assay; type: biochemical; details: read-out: CDK1 IC50
T1 construct: purchased New England Biolabs 6020; host or cells: insect cells
Method in brief: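 Human CDK1:cyclin-B (30 ng/well) with biotinylated histone-H1 peptide and ^33P-γ-ATP, 1 h at 30° C, 1% DMSO, on streptavidin FlashPlate; incorporation read by scintillation.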

[1] = molecular target: T2, Calmodulin Kinase (calmodulin-dependent protein kinase 2) (Rattus norvegicus, UniProt P11275); assay: Kinase Selectivity Assay Calmodulin Kinase; type: biochemical; details: Kinase Selectivity, Tables 2a-2k; read-out: Calmodulin Kinase 2 IC50
T2 construct: a truncated version of the alpha subunit of the rat protein; purchased New England Biolabs 6060; host or cells: insect cells
Method in brief: (§1)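 Biotinylated peptide phosphorylation measured as ^33P-γ-ATP incorporation on streptavidin plates after 1 h at 30° C, 1% DMSO final, enzyme in 50 mM Tris-HCl pH 8.0, 0.1% BSA. Compounds in duplicate at 8 concentrations, 100 uM to 10 pM. IC50 from percent inhibition versus log concentration.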

[2] = molecular target: T3, Glycogen Synthase Kinase-3 (beta isoform) (Oryctolagus cuniculus, UniProt G1T8E2); assay: Kinase Selectivity Assay Glycogen Synthase Kinase-3; type: biochemical, rabbit
T3 construct: purchased New England Biolabs 6040; host or cells: E. coli
Method in brief: as §1

[3] = molecular target: T4, Casein Kinase 1 (CK1 delta isoform) (Rattus norvegicus, UniProt Q06486); assay: Kinase Selectivity Assay Casein Kinase 1; type: biochemical; details: Tables 2a-2k, read-out: Caseine Kinase 1 IC50
T4 construct: a truncation at amino acid 318 of the C-terminal portion of the rat CK1 delta isoform; purchased New England Biolabs 6030; host or cells: E. coli
T4 sequence (Q06486 1-317): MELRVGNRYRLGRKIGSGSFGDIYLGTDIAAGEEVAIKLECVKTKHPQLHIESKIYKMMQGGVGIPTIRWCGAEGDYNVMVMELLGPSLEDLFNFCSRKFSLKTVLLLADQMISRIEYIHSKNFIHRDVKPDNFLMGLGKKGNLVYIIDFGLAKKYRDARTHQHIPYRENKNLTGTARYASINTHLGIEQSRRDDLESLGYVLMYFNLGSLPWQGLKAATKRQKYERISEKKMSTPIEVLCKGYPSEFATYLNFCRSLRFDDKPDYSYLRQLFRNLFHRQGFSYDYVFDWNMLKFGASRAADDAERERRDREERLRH
Method in brief: as §1

[4] = molecular target: T5, MAP Kinase (ERK-2 isoform) (Rattus norvegicus, UniProt P63086); assay: Kinase Selectivity Assay MAP Kinase (ERK-2); type: biochemical; details: Kinase Selectivity, Tables 2a-2k; read-out: ERK 2 IC50
T5 construct: polyhistidine (N); host or cells: E. coli
Method in brief: as §1

[5] = Kinase Selectivity, Tables 2a-2k
[6] = Kinase Selectivity, Tables 2a-2k, read-out: GSK-3 IC50

T5 sequence (P63086 whole entry, canonical isoform): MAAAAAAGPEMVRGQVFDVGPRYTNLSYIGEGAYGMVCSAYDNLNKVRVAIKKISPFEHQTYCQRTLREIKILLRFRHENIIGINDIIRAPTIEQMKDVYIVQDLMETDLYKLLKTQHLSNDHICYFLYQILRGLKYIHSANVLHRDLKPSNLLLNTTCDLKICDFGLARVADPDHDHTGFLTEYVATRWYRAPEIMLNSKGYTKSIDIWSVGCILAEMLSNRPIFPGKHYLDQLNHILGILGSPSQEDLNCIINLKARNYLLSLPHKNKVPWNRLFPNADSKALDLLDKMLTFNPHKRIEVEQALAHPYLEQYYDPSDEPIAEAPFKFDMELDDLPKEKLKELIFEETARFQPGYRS
T3 sequence (G1T8E2 1-432): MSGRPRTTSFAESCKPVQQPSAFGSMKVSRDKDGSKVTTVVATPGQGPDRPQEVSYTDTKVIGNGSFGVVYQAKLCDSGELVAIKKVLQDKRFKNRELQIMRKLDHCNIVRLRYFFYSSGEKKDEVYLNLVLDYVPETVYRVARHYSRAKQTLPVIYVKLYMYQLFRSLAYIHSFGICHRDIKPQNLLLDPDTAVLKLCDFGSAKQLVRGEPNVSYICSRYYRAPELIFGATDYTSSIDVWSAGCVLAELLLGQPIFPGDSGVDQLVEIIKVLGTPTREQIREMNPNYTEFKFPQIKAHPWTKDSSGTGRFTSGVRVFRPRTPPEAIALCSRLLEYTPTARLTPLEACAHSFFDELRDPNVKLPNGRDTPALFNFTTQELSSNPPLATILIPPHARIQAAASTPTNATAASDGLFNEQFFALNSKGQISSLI
T1 sequence (P06493 whole entry): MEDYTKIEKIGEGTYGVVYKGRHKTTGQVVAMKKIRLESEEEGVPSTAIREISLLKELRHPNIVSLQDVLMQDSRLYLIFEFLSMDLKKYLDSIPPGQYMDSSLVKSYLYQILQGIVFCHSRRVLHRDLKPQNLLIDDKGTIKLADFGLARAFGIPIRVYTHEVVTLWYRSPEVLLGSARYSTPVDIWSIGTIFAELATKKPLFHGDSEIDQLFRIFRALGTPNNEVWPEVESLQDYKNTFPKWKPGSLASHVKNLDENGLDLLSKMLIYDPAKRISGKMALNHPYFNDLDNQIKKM
T1 sequence (P14635 whole entry partner): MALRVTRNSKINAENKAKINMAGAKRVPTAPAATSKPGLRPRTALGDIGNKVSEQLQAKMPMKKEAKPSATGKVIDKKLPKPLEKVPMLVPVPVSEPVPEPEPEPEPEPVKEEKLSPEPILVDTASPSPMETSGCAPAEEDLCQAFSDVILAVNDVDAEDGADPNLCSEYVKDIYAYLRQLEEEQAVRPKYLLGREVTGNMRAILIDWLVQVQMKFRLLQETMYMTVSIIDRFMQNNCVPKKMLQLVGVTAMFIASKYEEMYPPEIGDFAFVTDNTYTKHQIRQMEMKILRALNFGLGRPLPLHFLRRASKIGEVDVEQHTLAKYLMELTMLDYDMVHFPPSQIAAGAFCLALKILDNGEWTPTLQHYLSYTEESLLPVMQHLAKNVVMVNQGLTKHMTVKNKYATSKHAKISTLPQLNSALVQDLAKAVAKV

Structure (SMILES)	IC50 (CDK1:Cyclin-B; [5])	IC50 (CDK1:Cyclin-B; Table 1)	IC50 [1]	IC50 [2]	IC50 [3]	IC50 [2, 6]	IC50 [4]
Nc1nc(Nc2ccc(S(N)(=O)=O)cc2)nn1C(=O)c1c(F)cccc1F [Cpd 1, 4-[[5-amino-1-(2,6-difluorobenzoyl)-1H-1,2,4-triazol-3-yl]amino]-benzenesulfonamide]	6 nM	6.4 nM	> 100000 nM	41 nM			
Nc1nc(Nc2ccc(S(N)(=O)=O)cc2)nn1C(=O)c1cccs1 [Cpd 14, 4-[[5-amino-1-(2-thienylcarbonyl)-1H-1,2,4-triazol-3-yl]amino]-benzenesulfonamide]	4.5 nM	4.5 nM	60400 nM		348 nM	3 nM	2140 nM
Nc1nc(Nc2ccc(S(N)(=O)=O)cc2)nn1C(=O)c1sccc1F [Cpd 16, 4-[[5-amino-1-[(3-fluoro-2-thienyl)carbonyl]-1H-1,2,4-triazol-3-yl]amino]-benzenesulfonamide]	21 nM	2.1 nM	> 100000 nM		214 nM	4 nM	390 nM
Nc1nc(Nc2ccc(S(N)(=O)=O)cc2)nn1C(=O)c1sccc1Cl [Cpd 17, 4-[[5-amino-1-[(3-chloro-2-thienyl)carbonyl]-1H-1,2,4-triazol-3-yl]amino]-benzenesulfonamide]	2.5 nM	2.5 nM	2800 nM		643 nM	9 nM	1870 nM
Nc1nc(Nc2ccc(S(=O)(=O)N3CCCCC3)cc2)nn1C(=O)c1cccs1 [Cpd 23, N^3-[4-(1-piperidinylsulfonyl)phenyl]-1-(2-thienylcarbonyl)-1H-1,2,4-triazole-3,5-diamine]	89 nM	88.9 nM	10500 nM		113 nM	16 nM	1620 nM
Nc1nc(Nc2ccc(S(N)(=O)=O)cc2)nn1C(=O)c1ccsc1 [Cpd 30, 4-[[5-amino-1-(3-thienylcarbonyl)-1H-1,2,4-triazol-3-yl]amino]-benzenesulfonamide]	17 nM	17 nM	88300 nM		1540 nM	14 nM	5930 nM
CCc1ccc(C(=O)n2nc(Nc3ccc(S(N)(=O)=O)cc3)nc2N)s1 [Cpd 32, 4-[[5-amino-1-[(5-ethyl-2-thienyl)carbonyl]-1H-1,2,4-triazol-3-yl]amino]-benzenesulfonamide]	3 nM	3.1 nM	> 100000 nM		181 nM	3 nM	563 nM
Cc1nc(C)c(C(=O)n2nc(Nc3ccc(S(N)(=O)=O)cc3)nc2N)s1 [Cpd 34, 4-[[5-amino-1-[(2,4-dimethyl-5-thiazolyl)carbonyl]-1H-1,2,4-triazol-3-yl]amino]-benzenesulfonamide]	2 nM	1.6 nM	> 100000 nM		182 nM	15 nM	> 10000 nM
Nc1nc(Nc2ccc(S(N)(=O)=O)cc2)nn1C(=O)c1sccc1Br [Cpd 35, 4-[[5-amino-1-[(3-bromo-2-thienyl)carbonyl]-1H-1,2,4-triazol-3-yl]amino]-benzenesulfonamide]		1.1 nM					
Nc1nc(Nc2ccc(S(N)(=O)=O)cc2)nn1C(=O)C1CCCC1 [Cpd 38, 4-[[5-amino-1-(cyclopentylcarbonyl)-1H-1,2,4-triazol-3-yl]amino]-benzenesulfonamide]			> 100000 nM		6100 nM	122 nM	24200 nM
Nc1nc(Nc2ccc(S(N)(=O)=O)cc2)nn1C(=O)C1CCCCC1 [Cpd 39, 4-[[5-amino-1-(cyclohexylcarbonyl)-1H-1,2,4-triazol-3-yl]amino]-benzenesulfonamide]			> 100000 nM		4100 nM	127 nM	13200 nM
CC(C)(C)c1ccc(C(=O)n2nc(Nc3ccc(S(N)(=O)=O)cc3)nc2N)s1 [Cpd 51, 4-[[5-amino-1-[[5-(1,1-dimethylethyl)-2-thienyl]carbonyl]-1H-1,2,4-triazol-3-yl]amino]-benzenesulfonamide]	7 nM	7 nM	813 nM		223 nM	20 nM	928 nM
Cc1ccccc1C(=O)n1nc(Nc2ccc(S(N)(=O)=O)cc2)nc1N [Cpd 57, 4-[[5-amino-1-(2-methylbenzoyl)-1H-1,2,4-triazol-3-yl]amino]-benzenesulfonamide]	67 nM	67 nM	> 100000 nM		14000 nM	98 nM	> 100000 nM
CC(O)c1ccc(F)c(C(=O)n2nc(Nc3ccc(S(N)(=O)=O)cc3)nc2N)c1F (stereo not shown) [Cpd 58, 4-[[5-amino-1-[2,6-difluoro-3-(1-hydroxyethyl)benzoyl]-1H-1,2,4-triazol-3-yl]amino]-benzenesulfonamide]	14 nM	14 nM	> 100000 nM		11200 nM	15 nM	10700 nM
Cc1ccc(F)c(C(=O)n2nc(Nc3ccc(S(N)(=O)=O)cc3)nc2N)c1Cl [Cpd 69, 4-[[5-amino-1-(2-chloro-6-fluoro-3-methylbenzoyl)-1H-1,2,4-triazol-3-yl]amino]-benzenesulfonamide]	23 nM	23 nM	> 100000 nM		16600 nM	147 nM	12500 nM
Nc1nc(Nc2ccc(S(N)(=O)=O)cc2)nn1C(=O)c1c(F)cccc1Cl [Cpd 70, 4-[[5-amino-1-(2-chloro-6-fluorobenzoyl)-1H-1,2,4-triazol-3-yl]amino]-benzenesulfonamide]	35 nM	35 nM	> 100000 nM		35700 nM	220 nM	19400 nM
CN1CCN(c2ccc(Nc3nc(N)n(C(=O)c4c(F)cccc4F)n3)cc2)CC1 [Cpd 71, 1-(2,6-difluorobenzoyl)-N^3-[4-(4-methyl-1-piperazinyl)phenyl]-1H-1,2,4-triazole-3,5-diamine]	3710 nM	3710 nM	60900 nM		> 100000 nM	1720 nM	> 100000 nM
CNS(=O)(=O)c1ccc(Nc2nc(N)n(C(=O)c3c(F)cccc3F)n2)cc1 [Cpd 80, 4-[[5-amino-1-(2,6-difluorobenzoyl)-1H-1,2,4-triazol-3-yl]amino]-N-methyl-benzenesulfonamide]		45.2 nM					
CNS(=O)(=O)c1ccc(Nc2nc(N)n(C(=O)c3c(F)ccc(C)c3F)n2)cc1 [Cpd 81, 4-[[5-amino-1-(2,6-difluoro-3-methylbenzoyl)-1H-1,2,4-triazol-3-yl]amino]-N-methyl-benzenesulfonamide]			> 100000 nM		6960 nM	49 nM	11700 nM
CNS(=O)(=O)c1ccc(Nc2nc(N)n(C(=O)c3sccc3C)n2)cc1 [Cpd 82, 4-[[5-amino-1-[(3-methyl-2-thienyl)carbonyl]-1H-1,2,4-triazol-3-yl]amino]-N-methyl-benzenesulfonamide]	9 nM	9 nM	> 100000 nM		354 nM	25 nM	1950 nM
CCc1ccc(C(=O)n2nc(Nc3ccc(S(=O)(=O)NC)cc3)nc2N)s1 [Cpd 84, 4-[[5-amino-1-[(5-ethyl-2-thienyl)carbonyl]-1H-1,2,4-triazol-3-yl]amino]-N-methyl-benzenesulfonamide]	4 nM	3.8 nM	> 100000 nM		188 nM	19 nM	1220 nM
CCc1ccc(C(=O)n2nc(Nc3ccc(S(=O)(=O)NCCN(C)C)cc3)nc2N)s1 [Cpd 103, 4-[[5-amino-1-[(5-ethyl-2-thienyl)carbonyl]-1H-1,2,4-triazol-3-yl]amino]-N-[2-(dimethylamino)ethyl]-benzenesulfonamide]	7 nM	7.4 nM	> 100000 nM		322 nM	13 nM	845 nM
Cc1ccsc1C(=O)n1nc(Nc2ccc(S(=O)(=O)NCCN(C)C)cc2)nc1N [Cpd 104, 4-[[5-amino-1-[(3-methyl-2-thienyl)carbonyl]-1H-1,2,4-triazol-3-yl]amino]-N-[2-(dimethylamino)ethyl]-benzenesulfonamide]	1.6 nM	15.6 nM	> 10000 nM		624 nM	20 nM	> 100000 nM
Nc1nc(Nc2ccc(N3CCCS3(=O)=O)cc2)nn1C(=O)c1c(F)cccc1F [Cpd 117]			> 100000 nM		13500 nM	1040 nM	> 100000 nM

Reference: US6924302B2, “Substituted triazole diamine derivatives as kinase inhibitors” (Ortho McNeil Pharmaceutical, Inc., priority 2000, dated 2005)
